In US4460596A, “Thienyloxazolylacetic acid derivatives and process for preparing” (Tanabe Seiyaku Co., Ltd., priority 1981, dated 1984):

Experiments:
[1] = system: blood platelets (PRP); test: Platelet aggregation-inhibiting activity in vitro (collagen, rat platelet-rich plasma); assay type: cell-based, male SD rats; details: final concentration 100 μg/ml, 37° C.
Experimental: (Platelet aggregation-inhibiting activity)
Blood was collected from the abdominal aorta of male SD rats (body weight: 250-300 g) which were anesthetized with ether. Nine volumes of said blood were mixed with one volume of an aqueous 3.8% (w/v) trisodium citrate solution, and the mixture was centrifuged at 500×g for 5 minutes to give platelet-rich plasma (hereinafter referred to as "PRP") as the supernatant solution. The bottom layer was further centrifuged at 1000×g for 10 minutes to give platelet-poor plasma (hereinafter referred to as "PPP") as the supernatant solution. PRP was diluted with PPP so that the blood platelet count was 8-10×10^5 /mm^3. Then, a mixture of 200 μl of said diluted PRP and 25 μl of a test compound solution (final concentration: 100 μg/ml) was introduced into a glass cell of SIENCO aggregometer (Sienco Inc., Morrison, Colo. Model DP-247-D). After the mixture was stirred at 1100 rpm at 37° C. for 2 minutes, 25 μl of a collagen solution (prepared by Holmsen's method described in Biochim. Biophys. Acta, Vol. 186, page 254(1969)) was added thereto, and the percentage inhibition of platelet aggregation was calculated in accordance with the following formula from the degree of the platelet aggregation which was estimated by Born's method (Nature, 194, page 927([…])). [formula]

[2] = system: serum cholesterol and serum triglyceride; test: Hypolipidemic activity in rats (serum cholesterol and triglyceride, one-week diet); assay type: in vivo; details: male SD rats, 50 mg % in diet
Experimental: (§1) A test compound (50 mg %) was added to a commercial diet, and male SD rats (body weight: 120-140 g, a group of 5 rats) were fed with the diet ad libitum for one week. After the experimental period, blood was collected from the tail vein of the rats under ether anesthesia. Serum cholesterol and serum triglyceride were measured according to the methods of Zak (Amer. J. Clin. Pathol., Vol. 24, page 1307(1954)) and Van Handel-Zilversmit (J. Lab. & Clin. Med., Vol. 55, page 152(1957)), respectively. Then, the increase (%) in liver weight and the decrease (%) in serum cholesterol or triglyceride were calculated according to the following formulae: [formula]

[3] = system: platelet aggregation; test: Platelet aggregation-inhibiting activity after oral administration (ex vivo); assay type: in vivo; details: 100 mg/kg, one hour after administration, male SD rats, collagen
[4] = Increase in liver weight in rats (one-week diet); assay type: in vivo; details: male SD rats, 50 mg % in diet
Experimental: as §1

Row | Structure (SMILES) | inhibition at 100 µg/mL [1] [%] | Decrease (%) in serum cholesterol [2] [%] | Decrease (%) in serum triglyceride [2] [%] | Percentage inhibition of platelet aggregation [3] [%] | increase (%) in liver weight [4] [%]
1 | CCOC(=O)Cc1nc(-c2ccc(F)cc2)oc1-c1cccs1 [ethyl 2-[2-(4-fluorophenyl)-5-(2-thienyl)-4-oxazolyl]acetate] | ≥ 10 | 17 | 43 |  | 
2 | CCCCCOC(=O)Cc1nc(-c2ccc(Cl)cc2)oc1-c1ccsc1 [n-pentyl 2-[2-(4-chlorophenyl)-5-(3-thienyl)-4-oxazolyl]acetate] |  | 19 | 45 |  | 
3 | CCCCCOC(=O)Cc1nc(-c2ccccc2)oc1-c1ccsc1 [n-pentyl 2-[2-phenyl-5-(3-thienyl)-4-oxazolyl]acetate] | ≥ 10 | 20 | 30 |  | 
4 | O=C(O)Cc1nc(-c2ccc(F)cc2)oc1-c1cccs1 [2-[2-(4-fluorophenyl)-5-(2-thienyl)-4-oxazolyl]acetic acid] | ≥ 10 | 17 | 27 |  | 
5 | CCOC(=O)Cc1nc(-c2ccc(F)cc2)oc1-c1ccsc1 [ethyl 2-[2-(4-fluorophenyl)-5-(3-thienyl)-4-oxazolyl]acetate] | ≥ 10 | 19 | 31 |  | 
6 | O=C(O)Cc1nc(-c2ccc(F)cc2)oc1-c1ccsc1 [2-[2-(4-fluorophenyl)-5-(3-thienyl)-4-oxazolyl]acetic acid] | ≥ 10 | 23 | 39 | 93 ± 6 | 
7 | O=C(O)Cc1nc(-c2ccc(Cl)cc2)oc1-c1ccsc1 [2-[2-(4-chlorophenyl)-5-(3-thienyl)-4-oxazolyl]acetic acid] | ≥ 10 | 18 | 49 |  | 
8 | CCOC(=O)C(C)(C)Oc1ccc(Cl)cc1 [Clofibrate, 2-(4-chlorophenoxy)-2-methylpropanoic acid ethyl ester, reference compound] | < 10 | 15 | 16 |  | 12
